The source of these data is publication PMC3894558, “Chemical signatures and new drug targets for gametocytocidal drug development” (Scientific Reports, 2014).

The term IC50 denotes the concentration that gives 50% inhibition.

The test system of this assay is P. falciparum 3D7 gametocytes. The experiment in a line: alamarBlue gametocyte viability assay, strain 3D7. Type of assay: cell-based, Plasmodium falciparum. As to conditions: Malaria Box; for Max Resp: DMSO set at 0%, 100 nM epoxomicin set at -100%; for Curve Class / IC50: stages III-V 3D7 gametocytes; for IC50: 11 concentrations, 1:3 dilution; call rule not given here. For orientation: The colour change of resazurin is a common sign of viable cells or microbes.

Read-outs that look alike come from different tables or passages of the source.

As for `O=C(NCc1ccco1)C1CCN(S(=O)(=O)c2ccc(Cl)cc2)CC1` [MMV006188], the “Max Resp” value turned out to be 19%, the “Curve Class” value stood at 4 and the IC50 entry was “Inactive”.
Turning to `CC(=O)Nc1nnc(SCc2c(C)cc(C(C)(C)C)cc2C)s1` [MMV020700], the “Max Resp” value is listed as -2%, the “Curve Class” value was found to be 4 and the IC50 entry is given as “Inactive”.
Consider `OC(Cn1nnc2ccccc21)Cn1c2ccc(Br)cc2c2cc(Br)ccc21` (stereo not drawn) [MMV666025], for which the “Max Resp” value is reported as -60% and the “Curve Class” value is recorded as -2.2. Besides, the IC50 (read-out: IC50) is 37.2 µM.
Turning to `Br.Cc1ccc(C)c(-c2csc(Nc3ccc(C)c(C)c3)n2)c1` [MMV007654], the “Max Resp” value is on record as -3%, the “Curve Class” value was 4 and the IC50 entry is on record as “Inactive”.
`Cc1cccc(N2C(=O)C3C(C2=O)C2(c4ccccc4)C(=O)C3(c3ccccc3)C(c3ccc4c(c3)OCO4)=C2c2ccc3c(c2)OCO3)c1` (stereo not drawn) [MMV007228]: the “Max Resp” value is reported as -1%, the “Curve Class” value is 4 and the IC50 entry is listed as “Inactive”.
Regarding `O=C(O)C(=O)O.Oc1ccc(Br)cc1CN1CCN(Cc2cccc(F)c2)CC1` [MMV000356], the “Max Resp” value was -72% and the “Curve Class” value was -1.2. For the same molecule, the IC50 (read-out: IC50) stood at 2.64 µM.
In the case of `O=C(Nc1ccc(N2CCCCC2)c(Cl)c1)c1ccc(Br)o1` [MMV019700], the “Max Resp” value came out at 17%, the “Curve Class” value came to 4 and the 50% inhibitory concentration (IC50) result is listed as “Inactive”.
As to `CC(C)c1ccc(CNCC(O)c2ccccc2)cc1.Cl` (stereo not drawn) [MMV001049], the “Max Resp” value was -76% and the “Curve Class” value is listed as -1.2. In addition, the IC50 (read-out: IC50) came to 2.35 µM.
On the same counts, the results for `CN(C)CCCNc1c2ccccc2nc2ccccc12` [MMV000448] are -105%, -1.1 and 1.87 µM.
`OC(CNC1CCCCC1)Cn1c2ccc(I)cc2c2cc(I)ccc21` (stereo not drawn) [MMV665882]: the “Max Resp” value is -97% and the “Curve Class” value is -2.1. Besides, under “read-out: IC50”, the IC50 was 2.96 µM.
In the case of `Cc1ccc2nc(C)cc(Nc3cccc(C(F)(F)F)c3)c2c1.Cl` [MMV000326], the “Max Resp” value is -52%, the “Curve Class” value is -2.2 and the IC50 result is listed as “Inactive”.
For `Oc1c(CN2CCN(c3ccccc3F)CC2)cc(Br)c2cccnc12` [MMV000760], the “Max Resp” value is -91% and the “Curve Class” value is recorded as -1.1. Also, under “read-out: IC50”, the IC50 stood at 3.72 µM.
Turning to `CCOc1ccccc1CNC(=O)C1c2ccccc2C(=O)N(CC(C)C)C1c1cccs1` (stereo not drawn) [MMV000653], the “Max Resp” value is on record as -49%, the “Curve Class” value was -2.2 and the IC50 result was “Inactive”.
With `COc1cccc(O)c1CN1CCC2(CCCN(Cc3ccc(F)cc3)C2)C1` (stereo not drawn) [MMV666061], the “Max Resp” value was -57% and the “Curve Class” value is -1.2. For the same molecule, for the setting “read-out: IC50”, the IC50 is 1.66 µM.
Turning to `COc1cc2cc(C(=O)Nc3ccccc3)c(N)nc2cc1OC` [MMV006767], the “Max Resp” value is on record as -53% and the “Curve Class” value was -2.2. For the same molecule, the IC50 (read-out: IC50) turned out to be 37.2 µM.
For `Oc1ccc(Cl)cc1CNc1nc2ccccc2[nH]1` [MMV665850], the “Max Resp” value is recorded as -50%, the “Curve Class” value was -2.2 and the IC50 entry is reported as “Inactive”.
On the same counts, the results for `CN1CCN(c2c3c(c(C#N)c4nc5ccccc5n24)CCC3)CC1` [MMV008127] are -5%, 4 and “Inactive”.
Take `COc1ccc(C=C2SC(=N)N(c3ccccc3OC)C2=O)cc1` [MMV666691]: the “Max Resp” value was -7%, the “Curve Class” value is 4 and the IC50 entry is given as “Inactive”.
In the case of `CCOc1ccc2nc(C)cc(Nc3ccc(Br)cc3)c2c1` [MMV006522], the “Max Resp” value was -59% and the “Curve Class” value is recorded as -2.2. The IC50 (read-out: IC50) was 29.6 µM.
Turning to `CCCn1c(=N)c(C(=O)NC2CCCCC2)cc2c(=O)n3cccc(C)c3nc21` [MMV008829], the “Max Resp” value is recorded as -26%, the “Curve Class” value came to 4 and the IC50 entry is “Inactive”.
For `CCN(CC)c1cc(C)c2cc(NC(=O)c3cccc(OC)c3)ccc2n1` [MMV000498], the “Max Resp” value is -20%, the “Curve Class” value was 4 and the IC50 entry was “Inactive”.
On to `O=C(Cc1ccccc1)NC(c1ccc(Cl)cc1)c1c(O)ccc2ccccc12` (stereo not drawn) [MMV665972], for which the “Max Resp” value was -62% and the “Curve Class” value is -2.2. Besides, the IC50 (read-out: IC50) was 29.6 µM.
Regarding `CCOC(=O)c1cnc2ccc(OC)cc2c1NCc1ccccc1` [MMV665813], the “Max Resp” value is reported as -14%, the “Curve Class” value is 4 and the IC50 result is listed as “Inactive”.
On to `CCOc1cc2c(cc1OCC)C(c1cc(OC)c(O)cc1Cl)NCC2` (stereo not drawn) [MMV008956], for which the “Max Resp” value is on record as -73% and the “Curve Class” value was -1.2. For the same molecule, the IC50 (read-out: IC50) is 3.32 µM.
`COc1ccc(-c2cc(=O)oc3c4c(ccc23)OCN(Cc2ccc(F)cc2)C4)cc1` [MMV000604]: the “Max Resp” value is reported as -55% and the “Curve Class” value was -2.2. Further, where the note is “read-out: IC50”, the IC50 stood at 7.43 µM.
For `COc1cc(C(=O)ON=C(N)Cc2cccc3ccccc23)cc(OC)c1OC` [MMV666687] the same measures were -100%, -2.1 and 14.8 µM.
`FC(F)(F)c1ccc(Nc2nnnc3ccccc23)cc1` [MMV665935]: the “Max Resp” value was 25%, the “Curve Class” value is reported as 4 and the IC50 entry is “Inactive”.
`CC(C)=CCN1CCC(C(=O)Nc2ccc(-c3nc4ccccc4[nH]3)cc2)CC1` [MMV665946]: the “Max Resp” value was -77% and the “Curve Class” value is -2.2. Under “read-out: IC50”, the IC50 is 14.8 µM.
As for `O=C(NCC1Cc2cccc(-c3ccncc3)c2O1)c1csc2c1CCCC2` (stereo not drawn) [MMV665954], the “Max Resp” value worked out at 5%, the “Curve Class” value is on record as 4 and the IC50 result is “Inactive”.
For `CCOC(=O)c1c(C)n(-c2ccc(Cl)cc2)c2ccc(OC(=O)C=Cc3ccccc3)cc12` [MMV666600], the “Max Resp” value amounted to 2%, the “Curve Class” value is given as 4 and the IC50 result was “Inactive”.
Take `COc1ccc2c(c1OC)C(=O)N1c3ccccc3N=C(c3ccc(C)cc3)CC21` (stereo not drawn) [MMV000917]: the “Max Resp” value is -63% and the “Curve Class” value was -2.2. Further, the IC50 (read-out: IC50) was 29.6 µM.
For the molecule `OC1CCCCC1C1(NC(=S)Nc2ccccc2)CCCCC1` (stereo not drawn) [MMV665980], the “Max Resp” value was -81% and the “Curve Class” value was -2.1. In addition, the IC50 (read-out: IC50) was 11.8 µM.
For the molecule `c1ccc(Cn2c(N=Nc3c(Nc4ccccc4)ccc4ccccc34)nc3ccccc32)cc1` [MMV666023], the “Max Resp” value is recorded as -89% and the “Curve Class” value was -2.1. The IC50 (read-out: IC50) amounted to 10.5 µM.
As to `Cc1cc(NCCN2CCCCC2)c2ccc3ccccc3c2n1` [MMV006203], the “Max Resp” value was -94% and the “Curve Class” value is on record as -1.1. For the same molecule, the IC50 (read-out: IC50) came out at 8.33 µM.
With `COc1cccc(Nc2nc(NCCO)c3ccccc3n2)c1.Cl` [MMV011944], the “Max Resp” value was -68% and the “Curve Class” value is reported as -2.2. Also, under “read-out: IC50”, the IC50 worked out at 14.8 µM.
For `CC(C)CNC(=O)c1c(N)n(CCc2ccccc2F)c2nc3ccccc3nc12` [MMV396744], the “Max Resp” value is given as -70% and the “Curve Class” value is reported as -1.2. Also, the IC50 (read-out: IC50) is 3.32 µM.
For `COc1ccc2c(c1)OC(O)(C(F)(F)C(F)(F)F)CC2=O` (stereo not drawn) [MMV007839], the “Max Resp” value is reported as -23%, the “Curve Class” value is 4 and the IC50 result is on record as “Inactive”.
For `CCCCCCOC(=O)C1=C(C)NC(=O)NC1c1ccccc1F` (stereo not drawn) [MMV007686] the same measures were -2%, 4 and “Inactive”.
On to `O=C(Nc1ccc(-c2nc3ccccc3[nH]2)cc1)c1ccc(Cl)c(Cl)c1` [MMV665840], for which the “Max Resp” value was -16%, the “Curve Class” value is on record as 4 and the IC50 entry is “Inactive”.
On to `O=C(NC1CCN(Cc2ccccc2)CC1)c1cc(-c2ccncc2)nc2ccc(Cl)cc12` [MMV020275], for which the “Max Resp” value is -48%, the “Curve Class” value is on record as -2.2 and the IC50 entry was “Inactive”.
For `Cc1ccc2cc3c(N)c4c(C)ccc(C)c4nc3nc2c1` [MMV666079], the “Max Resp” value was -81% and the “Curve Class” value was -2.1. In addition, under “read-out: IC50”, the IC50 was determined as 16.6 µM.
`O=C(Nc1ccc(Cl)cc1C(=O)Nc1ccncc1)c1ccc(Cl)cc1Cl` [MMV666057]: the “Max Resp” value was -57% and the “Curve Class” value was -2.2. The IC50 (read-out: IC50) amounted to 29.6 µM.
Regarding `CCN1CCN(c2cc(C)c3cc(NC(=O)c4ccc(OC)c(OC)c4)ccc3n2)CC1` [MMV019074], the “Max Resp” value is recorded as -32%, the “Curve Class” value was -2.2 and the IC50 entry is listed as “Inactive”.
Take `c1ccc(/C2=N/c3ccccc3/N=C(/c3ccccc3)c3ccccc32)cc1` [MMV007113]: the “Max Resp” value is -5%, the “Curve Class” value is reported as 4 and the IC50 result was “Inactive”.
As to `CCCN(CCC)CC(O)COc1ccccc1C(=O)Nc1ccccc1` (stereo not drawn) [MMV006455], the “Max Resp” value is recorded as -40% and the “Curve Class” value is -1.2. The IC50 (read-out: IC50) was found to be 0.743 µM.
Turning to `CCc1ccc(CNCC(O)c2ccccc2)cc1.Cl` (stereo not drawn) [MMV665812], the “Max Resp” value is recorded as -74% and the “Curve Class” value is listed as -1.2. For the setting “read-out: IC50”, the IC50 was determined as 5.26 µM.
Take `CC(NCc1ccccc1)c1cc(Cl)ccc1O` (stereo not drawn) [MMV665789]: the “Max Resp” value was -58% and the “Curve Class” value is given as -1.2. In addition, where the note is “read-out: IC50”, the IC50 was determined as 1.32 µM.
Regarding `Cc1cccc(-n2ncc3c(O)nc(-n4nc(C)cc4NC(=O)c4cc5ccccc5o4)nc32)c1` [MMV403679], the “Max Resp” value was -64% and the “Curve Class” value was -2.2. The IC50 (read-out: IC50) came to 18.7 µM.
